For data set [1], the system named is canine melanoma cell lines. In words: Proliferation and viability of canine melanoma cell lines (data not shown). In kind it is cell-based. To be noted: Canis lupus familiaris, read-out: IC50 concentrations, canine melanoma cell lines.
The test system of data set [2] is dogs with NHL. In words: Dose expansion study, tumor response. To be noted: 1.5 mg/kg Monday/Wednesday/Friday. The data set is classed as in vivo. The protocol:
Tumor assessments were completed prior to study entry, and days 7, 14, 21, and 28. For dogs that continued beyond 4 weeks, response assessments were performed every 2 weeks thereafter, or at the time of suspected tumor progression. Responses were assessed by the investigator according to pre-defined protocol criteria. The response in dogs with assessable disease was performed by clinical examination, ultrasonography, or thoracic radiography. Many lesions were not amenable for quantitative radiographic imaging, but were followed either by serial clinical examination (superficial lesions; palpable lymph nodes) or by ultrasonography (abdominal lymph nodes). Thoracic lesions were assessed by thoracic radiography.
The response in dogs with measurable disease was judged by the investigator on the basis of Response Evaluation Criteria for Peripheral Nodal Lymphoma in dogs (v1.0). A complete response (CR) was defined as disappearance of all disease on two measurements separated by a minimum period of 3 weeks. A partial response (PR) was defined as greater than 30% reduction in the sum of the longest diameter of the target lesions documented by two assessments separated by at least 3 weeks. An increase of >20% in the size of all measurable tumor areas as measured by the sum of longest diameters of the target lesions taken as reference the smallest sum since initiation of therapy, or the appearance of any new lesion(s) would qualify as progressive disease (PD). […] Dogs who had no evidence of tumor progression and who had not experienced any unacceptable toxicity were eligible for extended treatment cycles. Dose escalation from twice per week administration to three times per week administration in an individual dog was permitted if the dog was tolerating therapy.

Data set [3] has as its system Jurkat cells. In words: MTS cell viability assay, Jurkat. In kind it is cell-based, human. As to conditions: Homo sapiens, Jurkat, 72 hours, read-out: IC50 (± S.D.), Jurkat. The protocol: Cryopreserved tumor cells obtained from sterile lymph node biopsy samples from dogs with diffuse large B cell lymphoma (DLBCL) were cultured with 100 ng/mL of megaCD40L (Enzo Life Science, Plymouth Meeting, PA) as previously described, [27]. The human T-cell leukemia cell line, Jurkat, was from the American Type Culture Collection (ATCC, Manassas, VA) and cultured in RPMI1640 medium (Gibco/BRL, Grand Island, NY) containing 10% fetal bovine serum (FBS; Atlas Biologicals, Fort Collins, CO), 2-mercaptoethanol (Gibco/BRL), HEPES, L-glutamine, sodium pyruvate (Mediatech Inc., Manassas, VA), non-essential amino acids (Sigma Aldrich, St. Louis, MO), and Primocin (Invivogen, San Diego, CA). The canine DLBCL cell line CLBL1 obtained from Dr. Barbara Rütgen (University of Vienna, Austria), [29] and human DLBCL cell lines OCI-Ly3 [30], [31] and OCI-Ly10 [32] obtained from Dr. Anne Novak (Mayo Clinic Cancer Center, Rochester, MN) were cultured in complete Iscove’s Modified Dulbecco’s medium (IMDM) containing 20% FBS, L-glutamine, and Primocin. All cells were maintained at 37°C in a humidified 5% CO2 atmosphere. The following additional canine tumor cell lines were used to evaluate response to SINE compounds: C2, mast cell tumor line provided by Dr. George Caughey, UCSF, San Francisco, CA [33]; OSA16, osteosarcoma cell line, provided by Dr. Jaime Modiano, UM, Minneapolis, MN [34]; and 323610-3, malignant melanoma cell line, provided by Dr. Michael Kent, UCD, Davis, CA [35]. […]
Cell viability for lymphoid lines was determined by the MTS (3-(4, 5-dimethylthiazol-2-yl)-5-(3-carboxymethoxyphenyl)-2-(4-sulfophenyl)-2H-tetrazolium) assay using CellTiter 96® AQueous One Solution Cell Proliferation Assay Kit (Promega, Madison, WI). […] After 72 hours, 20 µL of MTS solution was added to each well and cells were incubated for another 4 hours before measuring absorbance at 490 nm using a Wallac Victor 1420 Multilabel Counter (Perkin Elmer, Waltham, MA). The IC50 of SINE was calculated using Prism 6 software (GraphPad Software, Inc., La Jolla, CA).

Data set [4] is described as follows: Phase I dose escalation study, toxicity assessment. As to conditions: dog, in vivo, po; orally twice/week (Monday/Thursday), dogs with spontaneous cancer; read-out: maximum tolerated dose (MTD). The procedure: This study was a Phase I dose escalating, open label assessment of the safety and biologic activity of KPT-335 in client owned dogs with spontaneous malignancies. Assessment of clinical toxicities and tumor response was performed at each visit. Dogs were evaluated for hematologic and biochemical toxicities every 7 days with routine bloodwork. The initial dose of 1 mg/kg orally twice per week (Monday/Thursday or Tuesday/Friday) was based on previous data from normal laboratory dogs (data not shown) and dose escalation was set at 0.25 mg/kg increments in cohorts of 3 until dose limiting toxicity (DLT) was identified. The DLT was considered to be any grade 3 or 4 hematologic or non-hematologic toxicity based on the established VCOG-CTCAE criteria. […] Disease progression or signs and symptoms definitely related to disease were not considered adverse events (AEs). The maximum tolerated dose (MTD) was considered to be one dose below that at which DLT occurred.
Each patient underwent a baseline complete history, physical examination, and pre-dose laboratory assessment that included a complete blood count (CBC), serum biochemistry profile, coagulation parameters (PT/PTT) and urinalysis. Patients were assessed for adverse events on days 7, 14, 21, and 28, and every 2 weeks thereafter at which time all laboratory assessments were repeated. […]

Where “and” joins values, the source holds several entries; their conditions need not be identical. Identical values can stand only once.

As to `O=C(/C=C\n1cnc(-c2cc(C(F)(F)F)cc(C(F)(F)F)c2)n1)NNc1ccccn1` [KPT-335], in data set [1], the IC50 was 95 to 290 nM. Also, in data set [2], the CB rate was determined as 67%; the “TTP range, responders” value lay in the range of 35 to 354 days; the “clinical benefit (CB), dogs” value is reported as 4/6; the “dogs with SD for longer than 28 days” value came to 4. Besides, the “median TTP, responders” value in data set [2] was found to be 83 days. The “duration of PR, individual dogs” value in data set [2] (1.5 mg/kg) was 35 days and 354 days. Besides, in data set [2] (6 dogs with NHL), the “TTP range, all dogs” value lay within 13 to 354 days and the “median TTP, all dogs” value was 55 days. Further, in data set [3], the IC50 came to 0.3 nM. The MTD in data set [4] was 1.75 mg/kg.

The values are drawn from PMC3913620, “Preclinical Evaluation of the Novel, Orally Bioavailable Selective Inhibitor of Nuclear Export (SINE) KPT-335 in Spontaneous Canine Cancer: Results of a Phase I Study” (PLoS ONE, 2014).
